Publication PMC12136037, “Type II kinase inhibitors that target Parkinson’s disease–associated LRRK2” (Science Advances, 2025)

What was measured:
Test in all cases: DSF 100 kinase selectivity screen;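 also: compound tested at 20 µM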
Type in all cases: binding
[1] = target: T1, ~100 representative kinases (Homo sapiens, UniProt O14733); conditions: protein MAP2K7; average of three replicates
T1 construct: Recombinant protein kinase domains with a concentration of 2 μM
T1 sequence (O14733 1-419): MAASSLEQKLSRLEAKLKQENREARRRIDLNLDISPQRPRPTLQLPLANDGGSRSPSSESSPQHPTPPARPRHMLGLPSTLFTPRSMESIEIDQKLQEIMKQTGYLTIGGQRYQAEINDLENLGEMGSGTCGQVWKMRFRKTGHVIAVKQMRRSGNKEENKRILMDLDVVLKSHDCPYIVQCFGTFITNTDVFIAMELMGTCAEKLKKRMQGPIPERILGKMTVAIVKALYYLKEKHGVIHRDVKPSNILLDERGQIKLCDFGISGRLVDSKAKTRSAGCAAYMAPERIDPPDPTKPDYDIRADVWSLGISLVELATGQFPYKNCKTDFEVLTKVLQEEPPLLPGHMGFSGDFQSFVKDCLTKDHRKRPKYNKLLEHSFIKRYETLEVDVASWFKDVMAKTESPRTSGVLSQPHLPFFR
Procedure, shortened: (§1)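 Each kinase domain, at 2 μM, is mixed with 20 μM test compound and SYPRO Orange in Hepes (20 mM, pH 7.5) with 500 mM NaCl. Temperature is then raised at 3°C/min and fluorescence-monitored unfolding yields the melting temperature change, ΔTm in degrees Celsius.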

[2] = target: T2, ~100 representative kinases (Homo sapiens, UniProt O14965); conditions: Protein STK6; DSF; average of three replicates
T2 construct: Recombinant protein kinase domains with a concentration of 2 μM
T2 sequence (O14965 1-403): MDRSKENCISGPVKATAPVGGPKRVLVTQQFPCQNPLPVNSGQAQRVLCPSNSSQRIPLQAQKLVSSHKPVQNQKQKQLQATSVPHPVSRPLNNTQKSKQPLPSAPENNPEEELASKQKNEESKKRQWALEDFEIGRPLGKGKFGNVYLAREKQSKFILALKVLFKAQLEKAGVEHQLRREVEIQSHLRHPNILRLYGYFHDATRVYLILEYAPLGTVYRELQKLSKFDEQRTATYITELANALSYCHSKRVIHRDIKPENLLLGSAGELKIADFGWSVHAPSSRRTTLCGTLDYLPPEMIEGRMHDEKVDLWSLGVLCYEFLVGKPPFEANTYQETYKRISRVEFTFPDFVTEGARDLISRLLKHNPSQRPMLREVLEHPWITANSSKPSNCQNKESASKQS
Procedure, shortened: as §1

[3] = target: T3, ~100 representative kinases (Homo sapiens, UniProt P16083); conditions: protein NQO2; average of three replicates
T3 construct: Recombinant protein kinase domains with a concentration of 2 μM
T3 sequence (P16083 1-231): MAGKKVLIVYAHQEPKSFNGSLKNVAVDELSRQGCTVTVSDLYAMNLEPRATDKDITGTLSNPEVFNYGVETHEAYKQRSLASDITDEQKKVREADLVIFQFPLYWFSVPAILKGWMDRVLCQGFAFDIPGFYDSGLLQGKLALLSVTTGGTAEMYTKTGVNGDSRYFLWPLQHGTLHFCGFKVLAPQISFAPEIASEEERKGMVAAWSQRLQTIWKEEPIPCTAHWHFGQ
Procedure, shortened: as §1

[4] = target: T4, ~100 representative kinases (Homo sapiens, UniProt P29317); conditions: Protein EPHA2; average of three replicates
T4 construct: Recombinant protein kinase domains with a concentration of 2 μM
T4 sequence (P29317 24-976): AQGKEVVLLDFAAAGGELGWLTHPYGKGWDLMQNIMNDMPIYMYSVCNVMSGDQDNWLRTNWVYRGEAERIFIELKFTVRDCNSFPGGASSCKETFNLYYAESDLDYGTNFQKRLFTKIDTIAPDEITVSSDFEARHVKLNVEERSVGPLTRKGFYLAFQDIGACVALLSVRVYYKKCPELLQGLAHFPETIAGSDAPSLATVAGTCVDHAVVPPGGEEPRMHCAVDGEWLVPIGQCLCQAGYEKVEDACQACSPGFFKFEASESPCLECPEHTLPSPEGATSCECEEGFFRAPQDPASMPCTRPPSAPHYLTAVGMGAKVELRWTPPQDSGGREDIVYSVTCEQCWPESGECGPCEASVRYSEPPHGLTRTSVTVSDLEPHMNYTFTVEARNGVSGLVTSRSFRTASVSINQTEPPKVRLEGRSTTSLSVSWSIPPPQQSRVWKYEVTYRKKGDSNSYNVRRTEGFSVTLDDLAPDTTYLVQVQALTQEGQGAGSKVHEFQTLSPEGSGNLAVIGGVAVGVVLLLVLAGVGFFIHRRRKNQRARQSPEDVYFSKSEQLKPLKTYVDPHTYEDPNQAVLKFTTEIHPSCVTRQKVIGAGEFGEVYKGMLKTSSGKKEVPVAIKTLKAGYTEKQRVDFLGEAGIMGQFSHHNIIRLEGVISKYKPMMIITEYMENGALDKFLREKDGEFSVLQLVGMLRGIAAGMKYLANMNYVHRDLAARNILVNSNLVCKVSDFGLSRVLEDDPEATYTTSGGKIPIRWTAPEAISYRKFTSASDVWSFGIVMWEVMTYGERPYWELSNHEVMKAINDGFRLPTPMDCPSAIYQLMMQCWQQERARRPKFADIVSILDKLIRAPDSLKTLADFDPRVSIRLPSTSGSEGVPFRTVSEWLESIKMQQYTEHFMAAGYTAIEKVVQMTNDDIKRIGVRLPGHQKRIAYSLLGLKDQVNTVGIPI
Procedure, shortened: as §1

[5] = target: T5, ~100 representative kinases (Homo sapiens, UniProt P54756); conditions: Protein EPHA5; average of three replicates
T5 construct: Recombinant protein kinase domains with a concentration of 2 μM
T5 sequence (P54756 25-1037): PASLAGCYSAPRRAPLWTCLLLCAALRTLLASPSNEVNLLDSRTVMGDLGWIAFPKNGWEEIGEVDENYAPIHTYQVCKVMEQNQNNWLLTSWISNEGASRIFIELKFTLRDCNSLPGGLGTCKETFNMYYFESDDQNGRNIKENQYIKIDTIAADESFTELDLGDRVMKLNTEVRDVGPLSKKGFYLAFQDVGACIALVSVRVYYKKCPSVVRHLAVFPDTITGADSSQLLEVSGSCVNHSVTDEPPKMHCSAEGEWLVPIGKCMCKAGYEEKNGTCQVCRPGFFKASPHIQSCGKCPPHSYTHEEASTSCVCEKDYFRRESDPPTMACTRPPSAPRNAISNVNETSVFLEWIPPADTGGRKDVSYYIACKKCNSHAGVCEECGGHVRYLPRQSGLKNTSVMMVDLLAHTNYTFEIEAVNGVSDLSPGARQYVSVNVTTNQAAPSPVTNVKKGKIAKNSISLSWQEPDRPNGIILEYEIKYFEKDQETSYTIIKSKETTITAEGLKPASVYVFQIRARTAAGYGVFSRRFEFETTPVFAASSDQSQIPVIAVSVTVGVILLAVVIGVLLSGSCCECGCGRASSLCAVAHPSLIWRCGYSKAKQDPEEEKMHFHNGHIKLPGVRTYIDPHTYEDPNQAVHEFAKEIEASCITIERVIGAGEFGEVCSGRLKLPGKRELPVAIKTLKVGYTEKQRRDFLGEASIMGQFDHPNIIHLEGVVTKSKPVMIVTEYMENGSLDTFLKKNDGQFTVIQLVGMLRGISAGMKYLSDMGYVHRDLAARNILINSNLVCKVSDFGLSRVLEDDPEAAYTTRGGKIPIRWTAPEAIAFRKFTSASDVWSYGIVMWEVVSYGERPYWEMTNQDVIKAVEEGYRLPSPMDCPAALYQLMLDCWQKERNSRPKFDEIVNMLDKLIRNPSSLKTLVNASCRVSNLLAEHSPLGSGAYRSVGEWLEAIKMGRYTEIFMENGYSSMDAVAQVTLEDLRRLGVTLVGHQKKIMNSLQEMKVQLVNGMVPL
Procedure, shortened: as §1

[6] = target: T6, ~100 representative kinases (Homo sapiens, UniProt P54762); conditions: Protein EPHB1; average of three replicates
T6 construct: Recombinant protein kinase domains with a concentration of 2 μM
T6 sequence (P54762 18-984): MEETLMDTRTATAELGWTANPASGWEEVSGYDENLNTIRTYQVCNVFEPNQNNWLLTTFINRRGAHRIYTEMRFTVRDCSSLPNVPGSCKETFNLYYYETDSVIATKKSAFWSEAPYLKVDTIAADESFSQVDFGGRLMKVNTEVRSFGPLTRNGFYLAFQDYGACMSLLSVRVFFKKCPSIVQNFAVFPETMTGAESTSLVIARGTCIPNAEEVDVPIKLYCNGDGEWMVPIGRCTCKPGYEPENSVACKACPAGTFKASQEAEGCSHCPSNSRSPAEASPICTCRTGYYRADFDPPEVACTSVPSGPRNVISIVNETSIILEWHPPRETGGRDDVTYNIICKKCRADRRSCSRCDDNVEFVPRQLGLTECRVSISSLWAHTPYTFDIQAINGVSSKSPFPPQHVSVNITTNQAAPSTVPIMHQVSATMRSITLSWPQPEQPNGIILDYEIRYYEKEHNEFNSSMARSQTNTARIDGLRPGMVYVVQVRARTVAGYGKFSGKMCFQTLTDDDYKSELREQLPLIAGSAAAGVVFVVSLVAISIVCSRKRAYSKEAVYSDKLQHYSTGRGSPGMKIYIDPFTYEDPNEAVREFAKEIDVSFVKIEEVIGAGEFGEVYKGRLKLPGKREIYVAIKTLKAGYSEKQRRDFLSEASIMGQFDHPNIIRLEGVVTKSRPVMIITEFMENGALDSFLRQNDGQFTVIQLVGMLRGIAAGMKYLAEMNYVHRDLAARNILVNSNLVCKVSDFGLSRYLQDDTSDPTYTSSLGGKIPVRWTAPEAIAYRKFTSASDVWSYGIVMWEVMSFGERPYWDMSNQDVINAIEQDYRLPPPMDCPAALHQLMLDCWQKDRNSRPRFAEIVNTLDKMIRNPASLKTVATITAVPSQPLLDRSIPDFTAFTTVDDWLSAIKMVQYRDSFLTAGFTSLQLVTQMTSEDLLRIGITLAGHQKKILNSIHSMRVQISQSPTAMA
Procedure, shortened: as §1

[7] = target: T7, ~100 representative kinases (Homo sapiens, UniProt Q00536); conditions: protein PCTK1; average of three replicates
T7 construct: Recombinant protein kinase domains with a concentration of 2 μM
T7 sequence (Q00536 whole entry, the tested form may be a part): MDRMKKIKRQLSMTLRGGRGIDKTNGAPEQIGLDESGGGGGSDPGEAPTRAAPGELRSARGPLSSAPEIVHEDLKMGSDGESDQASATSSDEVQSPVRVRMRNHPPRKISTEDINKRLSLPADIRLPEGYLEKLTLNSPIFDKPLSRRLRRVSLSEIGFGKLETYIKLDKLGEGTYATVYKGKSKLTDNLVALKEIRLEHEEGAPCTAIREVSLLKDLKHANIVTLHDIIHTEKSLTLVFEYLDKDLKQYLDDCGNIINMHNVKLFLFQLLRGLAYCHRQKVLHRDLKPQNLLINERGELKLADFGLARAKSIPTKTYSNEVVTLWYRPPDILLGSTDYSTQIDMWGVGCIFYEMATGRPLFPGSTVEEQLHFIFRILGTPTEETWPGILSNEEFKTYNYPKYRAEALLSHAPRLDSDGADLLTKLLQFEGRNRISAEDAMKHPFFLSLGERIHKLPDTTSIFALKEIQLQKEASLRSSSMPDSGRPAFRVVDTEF
Procedure, shortened: as §1

[8] = target: T8, ~100 representative kinases (Homo sapiens, UniProt Q13554); conditions: Protein CAMK2B; average of three replicates
T8 construct: Recombinant protein kinase domains with a concentration of 2 μM
T8 sequence (Q13554 whole entry, the tested form may be a part): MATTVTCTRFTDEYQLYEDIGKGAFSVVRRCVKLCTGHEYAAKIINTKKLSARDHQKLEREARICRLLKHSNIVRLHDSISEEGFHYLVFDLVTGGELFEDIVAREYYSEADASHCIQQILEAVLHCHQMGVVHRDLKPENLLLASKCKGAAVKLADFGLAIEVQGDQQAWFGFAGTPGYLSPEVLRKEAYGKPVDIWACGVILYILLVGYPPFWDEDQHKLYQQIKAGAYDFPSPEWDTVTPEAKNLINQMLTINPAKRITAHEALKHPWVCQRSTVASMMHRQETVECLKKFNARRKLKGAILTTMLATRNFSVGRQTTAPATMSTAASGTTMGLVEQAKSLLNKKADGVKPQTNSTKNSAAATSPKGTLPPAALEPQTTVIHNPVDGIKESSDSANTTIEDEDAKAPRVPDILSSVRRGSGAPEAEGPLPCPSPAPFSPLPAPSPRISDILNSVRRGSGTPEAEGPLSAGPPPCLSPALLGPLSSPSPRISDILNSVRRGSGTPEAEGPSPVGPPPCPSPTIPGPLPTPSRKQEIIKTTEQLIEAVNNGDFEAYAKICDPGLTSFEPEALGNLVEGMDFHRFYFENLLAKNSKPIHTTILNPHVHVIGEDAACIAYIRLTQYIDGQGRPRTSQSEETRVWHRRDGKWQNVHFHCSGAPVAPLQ
Procedure, shortened: as §1

[9] = target: T9, ~100 representative kinases (Homo sapiens, UniProt Q8IU85); conditions: Protein CAMK1D; average of three replicates
T9 construct: Recombinant protein kinase domains with a concentration of 2 μM
T9 sequence (Q8IU85 whole entry, the tested form may be a part): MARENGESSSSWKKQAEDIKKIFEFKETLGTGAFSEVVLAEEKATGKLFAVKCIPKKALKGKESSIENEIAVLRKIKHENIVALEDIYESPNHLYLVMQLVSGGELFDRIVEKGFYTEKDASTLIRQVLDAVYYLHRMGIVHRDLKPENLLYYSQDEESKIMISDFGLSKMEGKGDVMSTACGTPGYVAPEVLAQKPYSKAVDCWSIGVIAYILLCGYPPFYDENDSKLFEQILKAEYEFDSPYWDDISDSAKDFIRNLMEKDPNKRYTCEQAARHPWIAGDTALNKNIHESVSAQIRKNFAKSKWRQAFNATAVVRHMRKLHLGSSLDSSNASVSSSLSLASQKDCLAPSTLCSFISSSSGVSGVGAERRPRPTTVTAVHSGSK
Procedure, shortened: as §1

Structure (SMILES)	dTm [1] [K]	dTm [2] [K]	dTm [3] [K]	dTm [4] [K]	dTm [5] [K]	dTm [6] [K]	dTm [7] [K]	dTm [8] [K]	dTm [9] [K]
O=C(Nc1cccc(-c2c[nH]c3ncnc(N4CCOCC4)c23)c1)C1(C(=O)Nc2ccc(F)c(F)c2)CC1 [Compound 17]	4.27	7.27	-0.41	4.47	2.05	2.50	5.61	1.54	-0.44
O=C(Nc1cccc(-c2c[nH]c3ncnc(N4CCOCC4)c23)c1)C1(C(=O)Nc2ccc(F)c(Cl)c2)CC1 [Compound 18]	5.35	8.24	0.34	4.93	2.50	3.41	7.39	2.15	1.04
O=C(Nc1cccc(-c2c[nH]c3ncnc(N4CCOCC4)c23)c1)C1(C(=O)Nc2ccc(F)c(Br)c2)CC1 [Compound 19]	4.93	7.49	-0.18	4.87	2.70	1.85	4.12	2.00	3.06
COc1cc(NC(=O)C2(C(=O)Nc3cccc(-c4c[nH]c5ncnc(N6CCOCC6)c45)c3)CC2)ccc1F [Compound 21]	4.61	6.06	-1.04	2.31	0.44	1.66	6.37	1.15	-0.74
O=C(Nc1cccc(-c2c[nH]c3ncnc(N4CCOCC4)c23)c1)C1(C(=O)Nc2ccc(F)cc2F)CC1 [Compound 23]	3.10	6.33	-1.88	4.60	1.86	2.11	4.13	0.18	-1.25
O=C(Nc1cccc(-c2c[nH]c3ncnc(N4CCOCC4)c23)c1)C1(C(=O)Nc2cc(Br)c(F)cc2F)CC1 [Compound 25]	3.02	6.39	-1.75	1.14	1.57	-4.24	-0.86	1.90	3.75
O=C(Nc1cccc(-c2c[nH]c3ncnc(N4CCOCC4)c23)c1)C1(C(=O)Nc2ccc(F)c(Br)c2F)CC1 [Compound 26]	3.31	3.83	-2.66	2.30	1.29	-6.10	-1.22	1.60	2.09
O=C(Nc1cc(F)cc(Br)c1)C1(C(=O)Nc2cccc(-c3c[nH]c4ncnc(N5CCOCC5)c34)c2)CC1 [Compound 27]	3.41	4.77	-1.53	0.41	0.40	-2.93	0.18	1.75	1.52

Other lines, results leading:

dTm [1] [K]	dTm [2] [K]	dTm [3] [K]	dTm [4] [K]	dTm [5] [K]	dTm [6] [K]	dTm [7] [K]	dTm [8] [K]	dTm [9] [K]	Structure (SMILES)
5.31	8.40	-1.06	6.64	3.44	4.46	8.82	1.78	0.0569	Cc1cc(NC(=O)C2(C(=O)Nc3cccc(-c4c[nH]c5ncnc(N6CCOCC6)c45)c3)CC2)ccc1F [Compound 20]
3.77	6.69	-1.08	3.30	2.41	-3.38	4.90	2.01	3.02	CC(C)(C)c1cccc(NC(=O)C2(C(=O)Nc3cccc(-c4c[nH]c5ncnc(N6CCOCC6)c45)c3)CC2)c1 [Compound 22]
3.14	6.56	-2.19	3.46	0.97	1.63	3.77	0.23	-2.03	Cc1cc(F)ccc1NC(=O)C1(C(=O)Nc2cccc(-c3c[nH]c4ncnc(N5CCOCC5)c34)c2)CC1 [Compound 24]
3.13	4.51	0.00214	14.41	9.59	11.35	15.55	1.84	2.13	CC(C)(C)c1cc(NC(=O)Nc2cccc(-c3c[nH]c4ncnc(N5CCOCC5)c34)c2)n(-c2ccc3ncccc3c2)n1 [Compound 28]
4.70	4.13	-0.60	10.91	6.71	5.08	16.54	-0.15	1.72	Cc1ccc(-n2nc(C(C)(C)C)cc2NC(=O)Nc2cccc(-c3c[nH]c4ncnc(N5CCOCC5)c34)c2)cc1 [Compound 29]
2.39	1.21	0.13	3.08	0.15	-0.80	3.37	-1.25	-0.23	Cc1ccc(-n2nc(C(C)(C)C)cc2NC(=O)Nc2cccc(-c3c[nH]c4nc(Cl)nc(N5CCOCC5)c34)c2)cc1 [Compound 30]
2.84	0.55	-0.27	4.11	1.56	0.39	5.50	-1.59	-0.11	CC(=O)N1CCN(c2nc(Cl)nc3[nH]cc(-c4cccc(NC(=O)Nc5cc(C(C)(C)C)nn5-c5ccc(C)cc5)c4)c23)CC1 [Compound 31]
